Consider seven compounds from patent US8865656B2, “Beta-hairpin peptidomimetics having CXCR4 antagonizing activity” (Polyphor AG, priority 2009, dated 2014).

Starred links: 1 amine or outer side, 2 acyl side, 3 side chain; linkers in the order of their positions; H or OH if unused. Positions of bridges follow the written chain, without caps; N, C: chain ends. Non-standard residues stand in square brackets, D forms with d. Residues, ends and D or L forms follow the SMILES beside them. X2 = O=C(CC[C@H](Cc1ccc(O)cc1)N[*:1])[*:2]; Oic = O=C(O)[C@@H]1C[C@@H]2CCCC[C@@H]2N1; Dab = NCC[C@H](N)C(=O)O

Data set [1] in a line: Plasma stability in human plasma. On the procedure:
(§1) The stability of the peptides in human and mouse plasma was determined by applying the following method: 315 μL/deep well of freshly thawed human plasma (Basler Blutspende-dienst) and mouse plasma (Harlan Sera-Lab, UK), respectively, were spiked with 35 μL/well of compound in PBS (100 μM, triplicate) and incubated at 37° C. […] Following shaking for 2 min the occurred suspensions were filtrated by vacuum and finally, 100 μL of each filtrate were transferred to a propylene microtiter plate, and analyzed by LC/MS as follows: Column: Waters, XBridge C18, mobile phases: (A) water+0.1% formic acid and (B) acetonitrile/water, 95/5 (v/v)+0.1% formic acid, gradient: 5%-100% (B) in 2 minutes, electrospray ionization, MRM detection (triple quadrupole). The peak areas were determined and triplicate values are averaged. The stability is expressed in percent of the initial value at t=0. (tx/to×100). By using the TREND function of EXCEL (Microsoft Office 2003) T1/2 were determined.

For data set [2], the target named is T1, human CXCR4 (Homo sapiens, UniProt P61073).
T1 construct: expressed in transfected cells; host or cells: mouse pre-B cell line 300-19
Nature of the data set: Ca2+-assay: CXCR4-antagonizing activity (SDF-1 induced calcium mobilization). It is filed as cell-based. The following applies: mouse pre-B cell line 300-19 stably transfected with human CXCR4, read-out: IC50% [nM] ± SD, CXCR4 receptor. From the text: 2.3. Ca^2+-Assay: CXCR4-Antagonizing Activity of the Peptides
Increases in intracellular calcium were monitored using a Flexstation 384 (Molecular Devices, Sunnyvale, Calif.) to assay the depsipeptides for CXCR4 antagonism in a mouse pre-B cell line 300-19 stably transfected with human CXCR4 (E. Oberlin, A. Amara, F. Bachelerie, C. Bessia, J.-L. Virelizier, F. Arenzana-Seisdedos, O. Schwartz, J.-M. Heard, I. Clark-Lewis, D. F. Legler, M. Loetscher, M. Baggiolini, B. Moser, Nature 1996, 382, 833-835; M. Loetscher, T. Geiser, T. O'Reilly, R. Zwalen, M. Baggiolini, B. Moser, J. Biol. Chem. 1994, 269, 232-237; M. D'Apuuo, A. Rolink, M. Loetscher, J. A. Hoxie, I. Clark-Lewis, F. Melchors, M. Baggiolini, B. Moser, Eur. J. Immunol. 1997, 27, 1788-1793). The cells were batch loaded with the Calcium 4 Assay kit (Molecular Devices) in assay buffer (Hanks Balanced salt solution [HBSS], 20 mM HEPES, pH 7.4, 0.1% BSA) for 1 h at room temperature and labeled cells were dispensed into black 96 well assays plates (Costar No. 3603). Calcium mobilization induced by stromal-derived factor-1 (SDF-1) was measured in the Flexstation 384 (excitation: 485 nm; emission: 525 nm) for 90 seconds. Antagonist activity of peptides was determined by spiking the cells with compounds prior to SDF-1 addition. Dose response curves (compound concentration versus % maximum response for SDF-1) were determined for each antagonist and IC50 values were calculated by fitting the data to a four parameter logistic equation using SoftmaxPro 4.8 (Molecular Devices).
Background: Calcium flux is commonly read through the fluorescence of an indicator in the cells.

The nature of data set [3]: Plasma stability in mouse plasma. On the procedure: as §1
Data set [4] in a line: in vitro. It is filed as cell-based. The following applies: African green monkey. On the procedure: (§2) The cytotoxicity of the depsipeptides to HELA cells (Acc57) and COS-7 cells (CRL-1651) was determined using the MTT reduction assay (T. Mossman, J. Immunol. Meth. 1983, 65, 55-63; M. V. Berridge, A. S. Tan, Arch. Biochem. Biophys. 1993, 303, 474-482). Briefly, the method was as follows: 7000 HELA cells/well and 4500 COS-7 cells/well were seeded and grown in 96-well microtiter plates for 24 h at 37° C. at 5% CO2. Thereafter, time zero (Tz) was determined by MTT reduction (see below). The supernatant of the remaining wells was discarded, and fresh medium and compounds in serial dilutions (12.5, 25 and 50 μM, triplicates) were pipetted into the wells. After incubation of the cells for 48 h at 37° C. at 5% CO2 the supernatant was discarded again and 100 μL MTT reagent (0.5 mg/mL in RPMI1640 and DMEM, respectively)/well was added. Following incubation at 37° C. for 2 h the media were aspirated and the cells were spiked (100 μL isopropanol/well). The absorbance of the solubilized formazan was measured at 595 nm (OD595peptide). For each concentration averages were calculated from triplicates. The percentage of growth was calculated as follows: (OD595peptide-OD595Tz-OD595Empty well)/(OD595Tz-OD595Empty well)×100%. The GI50 (Growth Inhibition) concentrations were calculated for each depsipeptide by using a trend line function for the concentrations (50, 25, 12.5 and 0 μM), the corresponding percentages and the value 50, (=TREND (C50:C0, %50:%0, 50).

Data set [5] has as its system human red blood cells (hRBC). The following applies: red cells of human, 1 h. On the procedure: The peptides were tested for their hemolytic activity against human red blood cells (hRBC). Fresh hRBC were washed three times with phosphate buffered saline (PBS) and centrifuged for 10 min at 2000×g. Compounds (100 μM) were incubated with 20% hRBC (v/v) for 1 h at 37° C. The final erythrocyte concentration was approximately 0.9×10^9 cells/mL. A value of 0% and 100% cell lyses, respectively, was determined by incubation of hRBC in the presence of PBS alone and 0.1% Triton X-100 in H2O, respectively. The samples were centrifuged, the supernatants were 20-fold diluted in PBS buffer and the optical densities (OD) were measured at 540 nm.
Percent hemolysis was calculated as follows: (OD540peptide/OD540H2O)×100%.

The nature of data set [6]: in vitro. It is filed as cell-based. Particulars: human. On the procedure:
as §2

Where [7] appears, read: human plasma, 37° C., sampling up to 240 min.
Setting [8] is: mouse plasma, 37° C., sampling up to 240 min.

T1 sequence (P61073 whole entry): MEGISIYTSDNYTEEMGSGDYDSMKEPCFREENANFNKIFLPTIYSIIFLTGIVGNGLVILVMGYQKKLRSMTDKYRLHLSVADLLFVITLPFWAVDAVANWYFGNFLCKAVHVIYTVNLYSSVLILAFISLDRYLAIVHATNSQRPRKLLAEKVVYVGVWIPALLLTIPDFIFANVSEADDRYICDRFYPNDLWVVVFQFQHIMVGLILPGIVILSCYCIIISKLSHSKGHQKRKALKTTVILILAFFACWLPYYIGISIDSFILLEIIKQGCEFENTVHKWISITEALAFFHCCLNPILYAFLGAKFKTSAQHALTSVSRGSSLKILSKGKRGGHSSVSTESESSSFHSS

As a reminder, the IC50 is the concentration that inhibits the measured activity by half. By GI50 is commonly meant the concentration giving 50% growth inhibition. `C[C@@H]1NC(=O)[C@H](Cc2c[nH]cn2)NC(=O)[C@H](Cc2ccc(O)cc2)NC(=O)[C@@H]2CCCN2C(=O)[C@@H](Cc2ccc(O)cc2)N(C)C(=O)[C@H](CCCCN)NC(=O)[C@H](CCC(N)=O)NC(=O)[C@H](Cc2ccc(O)cc2)NC(=O)[C@@H]2CSSC[C@H](NC1=O)C(=O)N[C@@H](CO)C(=O)N[C@@H](C)C(=O)N1CCC[C@@H]1C(=O)N[C@@H](CCN)C(=O)N[C@@H](CCCNC(=N)N)C(=O)N[C@@H](Cc1ccc(O)cc1)C(=O)N2` [compound 7]: the “Plasmastability human pl. T1/2” value in data set [1] (setting [7]) is reported as 240 min. The IC50 in data set [2] was 0.33 ± 0.1 nM. In addition, the “Plasmastability mouse pl. T1/2” value in data set [3] (setting [8]) was determined as 240 min. For the same compound, the GI50 in data set [4] and in data set [6] was above 50 µM throughout. For the same compound, in data set [5], the “Hemolysis at 100 μM” value was 0.6%.

`C[C@@H]1NC(=O)[C@H](Cc2c[nH]cn2)NC(=O)[C@H](Cc2ccc(O)cc2)NC(=O)[C@@H]2CCCN2C(=O)[C@@H](CCCCN)N(C)C(=O)[C@H](CCCCN)NC(=O)[C@H](CCC(N)=O)NC(=O)[C@H](Cc2ccc(O)cc2)NC(=O)[C@@H]2CSSC[C@H](NC1=O)C(=O)N[C@@H](CO)C(=O)N[C@@H](C)C(=O)N1CCC[C@@H]1C(=O)N[C@@H](CCN)C(=O)N[C@@H](CCCNC(=N)N)C(=O)N[C@@H](Cc1ccc(O)cc1)C(=O)N2` [compound 8]: the “Plasmastability human pl. T1/2” value in data set [1] (setting [7]) is on record as 240 min. The half-maximal inhibitory concentration (IC50) in data set [2] worked out at 0.31 ± 0.2 nM. In addition, the “Plasmastability mouse pl. T1/2” value in data set [3] (setting [8]) stood at 240 min. For the same compound, the GI50 in data set [4] and in data set [6] was above 50 µM each time. Besides, the “Hemolysis at 100 μM” value in data set [5] is on record as 0.3%.

Turning to `C[C@@H]1NC(=O)[C@H](Cc2c[nH]cn2)NC(=O)[C@H](Cc2ccc(O)cc2)NC(=O)[C@@H]2CCCN2C(=O)CN(CCCCN)C(=O)[C@H](CCCCN)NC(=O)[C@H](CCC(N)=O)NC(=O)[C@H](Cc2ccc(O)cc2)NC(=O)[C@@H]2CSSC[C@H](NC1=O)C(=O)N[C@@H](CO)C(=O)N[C@@H](C)C(=O)N1CCC[C@@H]1C(=O)N[C@@H](CCN)C(=O)N[C@@H](CCCNC(=N)N)C(=O)N[C@@H](Cc1ccc(O)cc1)C(=O)N2` [compound 9], the “Plasmastability human pl. T1/2” value in data set [1] (setting [7]) came out at 240 min. Besides, the IC50 in data set [2] was 0.09 ± 0.05 nM. For the same compound, the “Plasmastability mouse pl. T1/2” value in data set [3] (setting [8]) worked out at 240 min. Moreover, the concentration for 50% growth inhibition (GI50) in data set [4] and in data set [6] was above 50 µM each time. In addition, the “Hemolysis at 100 μM” value in data set [5] turned out to be 2.1%.

For `CC[C@@H](C)[C@H]1NC(=O)[C@H](CCCCN)NC(=O)[C@H](CCC(N)=O)NC(=O)[C@H](Cc2ccc(O)cc2)NC(=O)[C@@H]2CSSC[C@H](NC(=O)[C@H](C)NC(=O)[C@H](Cc3c[nH]cn3)NC(=O)[C@H](Cc3ccc(O)cc3)NC(=O)[C@@H]3CCCN3C1=O)C(=O)N[C@@H](CO)C(=O)N[C@@H](C)C(=O)N[C@H](Cc1c[nH]c3ccccc13)C(=O)N[C@@H](CCN)C(=O)N[C@@H](CCCNC(=N)N)C(=O)N[C@@H](Cc1ccc(O)cc1)C(=O)N2` [compound 11], in data set [1] (setting [7]), the “Plasmastability human pl. T1/2” value stood at 240 min. In data set [2], the 50% inhibitory concentration (IC50) was 0.17 ± 0.02 nM. In data set [3] (setting [8]), the “Plasmastability mouse pl. T1/2” value was 240 min. For the same compound, the concentration for 50% growth inhibition (GI50) in data set [4] and in data set [6] was above 50 µM each time. For the same compound, the “Hemolysis at 100 μM” value in data set [5] is listed as 1.7%.

In the case of `C[C@@H]1NC(=O)[C@H](CO)NC(=O)[C@@H]2CSSC[C@H](NC(=O)[C@H](Cc3ccc(O)cc3)NC(=O)[C@H](CCCNC(=N)N)NC(=O)[C@H](CCN)NC(=O)[C@@H](Cc3ccc(O)cc3)NC1=O)C(=O)N[C@@H](Cc1ccc(O)cc1)C(=O)N[C@@H](CCC(N)=O)C(=O)N[C@@H](CCCCN)C(=O)N(C)[C@H](C)C(=O)N1CCC[C@H]1C(=O)N[C@@H](Cc1ccc(O)cc1)C(=O)N[C@@H](Cc1c[nH]cn1)C(=O)N[C@@H](C)C(=O)N2` [compound 12], in data set [1] (setting [7]), the “Plasmastability human pl. T1/2” value came to 240 min. Further, the concentration for half-maximal inhibition (IC50) in data set [2] is 0.1 ± 0.02 nM. Moreover, the “Plasmastability mouse pl. T1/2” value in data set [3] (setting [8]) was 240 min. The GI50 in data set [4] and in data set [6] was above 50 µM throughout. Moreover, the “Hemolysis at 100 μM” value in data set [5] is reported as 0.9%.

Regarding `C[C@@H]1NC(=O)[C@H](Cc2c[nH]cn2)NC(=O)[C@H](Cc2ccc(O)cc2)NC(=O)[C@@H]2C[C@@H]3CCCC[C@@H]3N2C(=O)[C@H]2CCCN2C(=O)[C@H](CCCCN)NC(=O)[C@H](CCC(N)=O)NC(=O)[C@H](Cc2ccc(O)cc2)NC(=O)[C@@H]2CSSC[C@H](NC1=O)C(=O)N[C@@H](CO)C(=O)N[C@@H](C)C(=O)N1CCC[C@@H]1C(=O)N[C@@H](CCN)C(=O)N[C@@H](CCCNC(=N)N)C(=O)N[C@@H](Cc1ccc(O)cc1)C(=O)N2` [compound 16] (cyclo(ACSA[dP][Dab]RYCYQK[dP][Oic]YH); disulfide 2-9), the “Plasmastability human pl. T1/2” value in data set [1] (setting [7]) turned out to be 240 min. The concentration for half-maximal inhibition (IC50) in data set [2] worked out at 1.46 ± 1.6 nM. Besides, in data set [3] (setting [8]), the “Plasmastability mouse pl. T1/2” value is recorded as 240 min. For the same compound, the 50% growth inhibitory concentration (GI50) in data set [4] and in data set [6] was above 50 µM in each case. Moreover, the “Hemolysis at 100 μM” value in data set [5] came out at 0.5%.

With `C[C@@H]1NC(=O)[C@H](Cc2c[nH]cn2)NC(=O)CC[C@H](Cc2ccc(O)cc2)NC(=O)[C@@H]2CCCN2C(=O)[C@H]2CCCN2C(=O)[C@H](CCCCN)NC(=O)[C@H](CCC(N)=O)NC(=O)[C@H](Cc2ccc(O)cc2)NC(=O)[C@@H]2CSSC[C@H](NC1=O)C(=O)N[C@@H](CO)C(=O)N[C@@H](C)C(=O)N1CCC[C@@H]1C(=O)N[C@@H](CCN)C(=O)N[C@@H](CCCNC(=N)N)C(=O)N[C@@H](Cc1ccc(O)cc1)C(=O)N2` [compound 18] (cyclo([X2]HACSA[dP][Dab]RYCYQK[dP]P); disulfide 4-11), the “Plasmastability human pl. T1/2” value in data set [1] (human, plasma, 10 μM) turned out to be 240 min. Further, the IC50 in data set [2] turned out to be 0.39 ± 0.5 nM. Also, in data set [3] (mouse, plasma, 10 μM), the “Plasmastability mouse pl. T1/2” value came to 240 min. In addition, the concentration for 50% growth inhibition (GI50) in data set [4] and in data set [6] was above 50 µM throughout. For the same compound, in data set [5], the “Hemolysis at 100 μM” value is recorded as 1.4%.
